Patent US10738028B2, “Spiro three-membered ring, spiro five-membered ring peptide deformylase inhibitor and use thereof in antibacteria and anti-tumor” (priority 2016, dated 2020)

Experiments:
Assay type in all cases: cell-based
[1] = system: Enterococcus faecalis (EFA); experiment: MIC, two-fold agar dilution (CLSI), clinical isolates
Procedure, shortened: (§1)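 Susceptibility was tested using CLSI two-fold agar dilution against the strains examined.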

[2] = system: Enterococcus faecium (EFM); experiment: as above
Procedure, shortened: as §1

[3] = system: Escherichia coli (including ESBLs, non-ESBLs); experiment: as above
Procedure, shortened: as §1

[4] = system: Moraxella catarrhalis (BCA); experiment: as above
Procedure, shortened: as §1

[5] = system: Streptococcus pneoumoniae (SPN); experiment: as above
Procedure, shortened: as §1

[6] = system: methicillin-resistant Staphylococcus aureus (MRSA); experiment: as above
Procedure, shortened: as §1

[7] = system: methicillin-resistant Staphylococcus epidermidis (MRSE); experiment: as above
Procedure, shortened: as §1

[8] = system: methicillin-sensitive Staphylococcus aureus (MSSA); experiment: as above
Procedure, shortened: as §1

[9] = system: methicillin-sensitive Staphylococcus epidermidis (MSSE); experiment: as above
Procedure, shortened: as §1

[10] = system: HCT-116 colorectal cancer cell line; experiment: CCK-8 proliferation inhibition; conditions: concentration of 30 μM; 72 hours; CCK-8; 30 µM
Procedure, shortened: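 2000 cells/well, McCoy's 5A + 10% newborn bovine serum; overnight attach, 37° C./5% CO2. Cpd from DMSO stock diluted in medium, 72 h. Readout: CCK-8 (1:10). Ctrl 1‰ DMSO.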

[11] = system: A549 lung cancer cell line; experiment: CCK-8 proliferation inhibition; conditions: concentration of 30 μM
Procedure, shortened: (§2)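 Plating at 2000 cells/well, then incubation overnight at 37° C. Next, a range of compound concentrations for 72 hours (control 1‰ DMSO). Finally, medium decanted and CCK-8 diluted 1:10 added.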

[12] = system: BEL-7402 liver cancer cell line; experiment: CCK-8 proliferation inhibition; conditions: concentration of 30 μM, 72 hours, 30 µM
Procedure, shortened: as §2

[13] = system: MGC-803 gastric cancer cell line; experiment: CCK-8 proliferation inhibition; conditions: concentration of 30 μM
Procedure, shortened: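 CCK-8 read-out after 72 h drug exposure; 2000 cells/well, overnight pre-culture (37° C, 5% CO2); vehicle 1‰ DMSO. Media: PC3 F12; MGC-803/Jurkat 1640; MCF-7 DMEM high glucose; all +10% newborn bovine serum, 1% antibiotics.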

## O=C(C[C@@H](CC1CCCC1)C(=O)N1CC2(CC2)C[C@H]1C(=O)Nc1cnccn1)NO [Example 62]
[1]; clinical isolate EFA 15-1
  Anti-bacterial activity (MIC), strain EFA 15-1: > 32 µg/mL
[1]; clinical isolate EFA 15-2
  Anti-bacterial activity (MIC), strain EFA 15-2: > 32 µg/mL
[1]; clinical isolate EFA 15-3
  Anti-bacterial activity (MIC), strain EFA 15-3: > 32 µg/mL
[1]; clinical isolate EFA 15-4
  Anti-bacterial activity (MIC), strain EFA 15-4: > 32 µg/mL
[1]; clinical isolate EFA 15-5
  Anti-bacterial activity (MIC), strain EFA 15-5: > 32 µg/mL
[1]; clinical isolate EFA 15-6
  Anti-bacterial activity (MIC), strain EFA 15-6: > 32 µg/mL
[1]; clinical isolate EFA 15-9
  Anti-bacterial activity (MIC), strain EFA 15-9: 8 µg/mL
[2]; clinical isolate EFM 15-1
  Anti-bacterial activity (MIC), strain EFM 15-1: > 32 µg/mL
[2]; clinical isolate EFM 15-2
  Anti-bacterial activity (MIC), strain EFM 15-2: > 32 µg/mL
[2]; clinical isolate EFM 15-3
  Anti-bacterial activity (MIC), strain EFM 15-3: > 32 µg/mL
[2]; clinical isolate EFM 15-4
  Anti-bacterial activity (MIC), strain EFM 15-4: > 32 µg/mL
[2]; clinical isolate EFM 15-5
  Anti-bacterial activity (MIC), strain EFM 15-5: 0.5 µg/mL
[2]; clinical isolate EFM 15-6
  Anti-bacterial activity (MIC), strain EFM 15-6: 0.5 µg/mL
[3]; clinical isolate ECO+ 15-1
  Anti-bacterial activity (MIC), strain ECO+ 15-1: 0.5 µg/mL
[3]; clinical isolate ECO+ 15-2
  Anti-bacterial activity (MIC), strain ECO+ 15-2: 0.5 µg/mL
[3]; clinical isolate ECO+ 15-3
  Anti-bacterial activity (MIC), strain ECO+ 15-3: 0.5 µg/mL
[3]; clinical isolate ECO+ 15-4
  Anti-bacterial activity (MIC), strain ECO+ 15-4: 0.5 µg/mL
[3]; clinical isolate ECO− 15-1
  Anti-bacterial activity (MIC), strain ECO− 15-1: 16 µg/mL
[3]; clinical isolate ECO− 15-2
  Anti-bacterial activity (MIC), strain ECO− 15-2: 16 µg/mL
[3]; clinical isolate ECO− 15-3
  Anti-bacterial activity (MIC), strain ECO− 15-3: 16 µg/mL
[3]; clinical isolate ECO− 15-4
  Anti-bacterial activity (MIC), strain ECO− 15-4: 16 µg/mL
[4]; clinical isolate BCA 14-1
  Anti-bacterial activity (MIC), strain BCA 14-1: 2 µg/mL
[4]; clinical isolate BCA 14-4
  Anti-bacterial activity (MIC), strain BCA 14-4: 2 µg/mL
[4]; clinical isolate BCA 14-5
  Anti-bacterial activity (MIC), strain BCA 14-5: 0.5 µg/mL
[4]; clinical isolate BCA 14-6
  Anti-bacterial activity (MIC), strain BCA 14-6: 2 µg/mL
[4]; clinical isolate BCA 14-7
  Anti-bacterial activity (MIC), strain BCA 14-7: 2 µg/mL
[4]; clinical isolate BCA 14-8
  Anti-bacterial activity (MIC), strain BCA 14-8: 2 µg/mL
[4]; clinical isolate BCA 14-10
  Anti-bacterial activity (MIC), strain BCA 14-10: 1 µg/mL
[5]; clinical isolate SPN 16-2
  Anti-bacterial activity (MIC), strain SPN 16-2: 0.25 µg/mL
[5]; clinical isolate SPN 16-4
  Anti-bacterial activity (MIC), strain SPN 16-4: 0.5 µg/mL
[6]; clinical isolate MRSA 15-1
  Anti-bacterial activity (MIC), strain MRSA 15-1: 0.125 µg/mL
[6]; clinical isolate MRSA 15-2
  Anti-bacterial activity (MIC), strain MRSA 15-2: 0.5 µg/mL
[6]; clinical isolate MRSA 15-3
  Anti-bacterial activity (MIC), strain MRSA 15-3: 0.5 µg/mL
[6]; clinical isolate MRSA 15-4
  Anti-bacterial activity (MIC), strain MRSA 15-4: 0.5 µg/mL
[7]; clinical isolate MRSE 15-1
  Anti-bacterial activity (MIC), strain MRSE 15-1: 16 µg/mL
[7]; clinical isolate MRSE 15-2
  Anti-bacterial activity (MIC), strain MRSE 15-2: 16 µg/mL
[7]; clinical isolate MRSE 15-3
  Anti-bacterial activity (MIC), strain MRSE 15-3: 0.5 µg/mL
[7]; clinical isolate MRSE 15-7
  Anti-bacterial activity (MIC), strain MRSE 15-7: 0.5 µg/mL
[8]; clinical isolate MSSA 15-3
  Anti-bacterial activity (MIC), strain MSSA 15-3: 0.5 µg/mL
[8]; clinical isolate MSSA 15-4
  Anti-bacterial activity (MIC), strain MSSA 15-4: 0.5 µg/mL
[8]; clinical isolate MSSA 15-5
  Anti-bacterial activity (MIC), strain MSSA 15-5: 16 µg/mL
[8]; clinical isolate MSSA 15-6
  Anti-bacterial activity (MIC), strain MSSA 15-6: 16 µg/mL
[9]; clinical isolate MSSE 15-3
  Anti-bacterial activity (MIC), strain MSSE 15-3: 0.5 µg/mL
[9]; clinical isolate MSSE 15-4
  Anti-bacterial activity (MIC), strain MSSE 15-4: 0.5 µg/mL
[9]; clinical isolate MSSE 15-5
  Anti-bacterial activity (MIC), strain MSSE 15-5: 0.5 µg/mL
[9]; clinical isolate MSSE 15-6
  Anti-bacterial activity (MIC), strain MSSE 15-6: 0.5 µg/mL
[10]
  HCT116 inhibition rate/%: 79%
[11]; Homo sapiens, A549, 72 h
  inhibition at 30 µM: > 50%
[11]; 72 hours, 30 µM
  Inhibition of proliferation, Lung cancer A549: 59%
[12]
  Inhibition of proliferation, Liver cancer BEL-7402: 75%
[13]; Homo sapiens, MGC-803, 72 h
  inhibition at 30 µM: > 50%
[13]; 72 hours, 30 µM
  Inhibition of proliferation, Gastric cancer MGC-803: 64%
